Test results: patent US10647713B2 (Nimbus Lakshmi, Inc., priority 2016, dated 2020)

Target: human TYK2 (JH2domain-pseudokinase) (Homo sapiens (Human), UniProt P29597)
Experiment: TYK2 JH2 Domain Binding Assay (KINOMEscan, DiscoveRx)
Conditions: 11-point dilution, duplicate
Method in brief: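 TYK2 JH2 (G556–D888)–NFkB DBD fusion, DNA-tagged, from HEK293 extracts (<0.1 nM) competed against immobilised biotinylated ligand for 1 h at room temperature, 0.9% DMSO. Bead-retained kinase quantified by qPCR; Kd from 11-point 3-fold series (top 30,000 nM, duplicate), Hill fit with slope −1.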

human TYK2 (JH2domain-pseudokinase), sequence (P29597 556-888): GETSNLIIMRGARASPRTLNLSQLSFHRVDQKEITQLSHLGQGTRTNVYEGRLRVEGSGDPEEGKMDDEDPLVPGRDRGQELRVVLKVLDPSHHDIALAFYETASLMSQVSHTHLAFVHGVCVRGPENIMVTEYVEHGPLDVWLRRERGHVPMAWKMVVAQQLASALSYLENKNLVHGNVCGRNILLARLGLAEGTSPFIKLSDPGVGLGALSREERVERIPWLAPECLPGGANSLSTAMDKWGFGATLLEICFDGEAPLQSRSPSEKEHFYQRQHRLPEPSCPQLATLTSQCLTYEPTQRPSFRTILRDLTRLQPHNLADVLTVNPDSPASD

Kd [nM] | SMILES
0.5 to 1 | Cc1nc2c(Nc3ccc(C4CCOCC4)cc3N(C)S(C)(=O)=O)cc(NC(=O)C3CC3)nc2[nH]1 [I-196, N-(2-methyl-7-((2-(N-methylmethylsulfonamido)-4-(tetrahydro-2H-pyran-4-yl)phenyl)amino)-3H-imidazo[4,5-b]pyridin-5-yl)cyclopropanecarboxamide]
> 10 | COc1cc(-c2cncn2C)ccc1Nc1cc(Nc2cnc(C)c(C)n2)nc2[nH]c(C(F)F)nc12 [I-144, 2-(difluoromethyl)-N5-(5,6-dimethylpyrazin-2-yl)-N7-(2-methoxy-4-(1-methyl-1H-imidazol-5-yl)phenyl)-3H-imidazo[4,5-b]pyridine-5,7-diamine]
0.5 to 1 | Cc1nc2c(Nc3ccc(C4CCC4)cc3S(C)(=O)=O)cc(NC(=O)C3CC3)nc2[nH]1 [I-221, N-(7-((4-cyclobutyl-2-(methylsulfonyl)phenyl)amino)-2-methyl-3H-imidazo[4,5-b]pyridin-5-yl)cyclopropanecarboxamide]
1 to 10 | COc1c(Nc2cc(Nc3cccc(C#N)n3)nc3[nH]c(C)nc23)cccc1-c1nc(C)cs1 [I-543, 6-((7-((2-methoxy-3-(4-methylthiazol-2-yl)phenyl)amino)-2-methyl-3H-imidazo[4,5-b]pyridin-5-yl)amino)picolinonitrile]
1 to 10 | COc1c(Nc2cc(NC(=O)C3C[C@@H]3F)nc3[nH]c(C(F)F)nc23)cccc1-c1ncn(C)n1 (stereo in doubt) [I-374, N-(2-(difluoromethyl)-7-((2-methoxy-3-(1-methyl-1H-1,2,4-triazol-3-yl)phenyl)amino)-3H-imidazo[4,5-b]pyridin-5-yl)-2-fluorocyclopropane-1-carboxamide]
< 0.1 | CN=S(C)(=O)c1cc(-c2cnn(C)c2C)ccc1Nc1cc(NC(=O)C2CC2)nc2[nH]c(C(F)F)nc12 (centres unmarked) [I-631, N-(2-(difluoromethyl)-7-((4-(1,5-dimethyl-1H-pyrazol-4-yl)-2-(N,S-dimethylsulfonimidoyl)phenyl)amino)-3H-imidazo[4,5-b]pyridin-5-yl)cyclopropanecarboxamide]
> 10 | CS(=O)(=O)c1cc(C2CCC2)ccc1Nc1cc(NC(=O)[C@@H]2CC2(F)F)nc2[nH]c(C(F)F)nc12 [I-318, (S)—N-(7-((4-cyclobutyl-2-(methylsulfonyl)phenyl)amino)-2-(difluoromethyl)-3H-imidazo[4,5-b]pyridin-5-yl)-2,2-difluorocyclopropane-1-carboxamide]
0.1 to 0.5 | CN(c1cc(-c2cncn2C)ccc1Nc1cc(NC(=O)[C@@H]2CC2(F)F)nc2[nH]c(C(F)F)nc12)S(C)(=O)=O [I-270, (S)—N-(2-(difluoromethyl)-7-((4-(1-methyl-1H-imidazol-5-yl)-2-(N-methylmethylsulfonamido)phenyl)amino)-3H-imidazo[4,5-b]pyridin-5-yl)-2,2-difluorocyclopropane-1-carboxamide]
0.5 to 1 | COc1c(Nc2cc(Nc3cc(C)c(F)cn3)nc3[nH]cnc23)cccc1-c1ncn(C)n1 [I-2, N5-(5-fluoro-4-methylpyridin-2-yl)-N7-(2-methoxy-3-(1-methyl-1H-1,2,4-triazol-3-yl)phenyl)-3H-imidazo[4,5-b]pyridine-5,7-diamine]
1 to 10 | CS(=O)(=O)c1cc([C@H]2CCCOC2)ccc1Nc1cc(NC(=O)[C@@H]2CC2(F)F)nc2[nH]c(C(F)F)nc12 [I-311, (S)—N-(2-(difluoromethyl)-7-((2-(methylsulfonyl)-4-((R)-tetrahydro-2H-pyran-3-yl)phenyl)amino)-3H-imidazo[4,5-b]pyridin-5-yl)-2,2-difluorocyclopropane-1-carboxamide]
0.5 to 1 | Cc1ccc(Nc2cc(Nc3ccc(-c4cc(C)n(C)n4)cc3S(C)(=O)=O)c3nc(C(F)F)[nH]c3n2)nc1C#N [I-303, 6-((2-(difluoromethyl)-7-((4-(1,5-dimethyl-1H-pyrazol-3-yl)-2-(methylsulfonyl)phenyl)amino)-3H-imidazo[4,5-b]pyridin-5-yl)amino)-3-methylpicolinonitrile]
0.5 to 1 | Cc1nc2c(Nc3ccc([C@@H]4CCCO4)cc3S(C)(=O)=O)cc(Nc3ccc(C(C)C)c(C#N)n3)nc2[nH]1 [I-596, (S)-3-isopropyl-6-((2-methyl-7-((2-(methylsulfonyl)-4-(tetrahydrofuran-2-yl)phenyl)amino)-3H-imidazo[4,5-b]pyridin-5-yl)amino)picolinonitrile]
< 0.1 | Cc1c(-c2ccc(Nc3cc(NC(=O)C4CC4)nc4[nH]c(C(F)F)nc34)c(S(C)(=O)=O)c2)cnn1C1CC1 [I-537, N-(7-((4-(1-cyclopropyl-5-methyl-1H-pyrazol-4-yl)-2-(methylsulfonyl)phenyl)amino)-2-(difluoromethyl)-3H-imidazo[4,5-b]pyridin-5-yl)cyclopropanecarboxamide]
1 to 10 | CS(=O)(=O)c1cc(C2CCOCC2)ccc1Nc1cc(NC(=O)C2CC2(F)F)nc2[nH]c(C(F)F)nc12 (centres unmarked) [I-337, N-(2-(difluoromethyl)-7-((2-(methylsulfonyl)-4-(tetrahydro-2H-pyran-4-yl)phenyl)amino)-3H-imidazo[4,5-b]pyridin-5-yl)-2,2-difluorocyclopropane-1-carboxamide]
1 to 10 | CS(=O)(=O)c1cc(C2CCC2)ccc1Nc1cc(NC(=O)C2CC2)nc2[nH]c(C(F)F)nc12 [I-220, N-(7-((4-cyclobutyl-2-(methylsulfonyl)phenyl)amino)-2-(difluoromethyl)-3H-imidazo[4,5-b]pyridin-5-yl)cyclopropanecarboxamide]
0.1 to 0.5 | Cc1nc(-c2ccc(Nc3cc(NC(=O)C4CC4)nc4[nH]c(C(F)F)nc34)c(S(C)(=O)=O)c2)c(C)s1 [I-481, N-(2-(difluoromethyl)-7-((4-(2,5-dimethylthiazol-4-yl)-2-(methylsulfonyl)phenyl)amino)-3H-imidazo[4,5-b]pyridin-5-yl)cyclopropanecarboxamide]
0.1 to 0.5 | Cc1nc2c(Nc3ccc(-c4cncn4C)cc3S(C)(=O)=O)cc(NC(=O)[C@H]3C[C@H]3F)nc2[nH]1 [I-261, (1R,2R)-2-fluoro-N-(2-methyl-7-((4-(1-methyl-1H-imidazol-5-yl)-2-(methylsulfonyl)phenyl)amino)-3H-imidazo[4,5-b]pyridin-5-yl)cyclopropane-1-carboxamide]
1 to 10 | Cc1nc2c(Nc3ccc([C@@H]4CCCCO4)cc3S(C)(=O)=O)cc(NC(=O)[C@@H]3CC3(F)F)nc2[nH]1 (stereo in doubt) [I-324, 2,2-difluoro-N-(2-methyl-7-((2-(methylsulfonyl)-4-((R)-tetrahydro-2H-pyran-2-yl)phenyl)amino)-3H-imidazo[4,5-b]pyridin-5-yl)cyclopropane-1-carboxamide]
0.1 to 0.5 | CN=[S@](C)(=O)c1ccccc1Nc1cc(NC(=O)C2CC2)nc2[nH]c(C(F)F)nc12 [I-395]
0.5 to 1 | Cc1cn(C)c(-c2ccc(Nc3cc(NC(=O)C4CC4)nc4[nH]c(C(F)F)nc34)c(N(C)S(C)(=O)=O)c2)n1 [I-175, N-(2-(difluoromethyl)-7-((4-(1,4-dimethyl-1H-imidazol-2-yl)-2-(N-methylmethylsulfonamido)phenyl)amino)-3H-imidazo[4,5-b]pyridin-5-yl)cyclopropane-Carboxamide]
0.1 to 0.5 | COc1c(Nc2cc(Nc3ccc(C)nn3)nc3[nH]cnc23)cccc1-c1ncn(C)n1 [I-4, N7-(2-methoxy-3-(1-methyl-1H-1,2,4-triazol-3-yl)phenyl)-N5-(6-methylpyridazin-3-yl)-3H-imidazo[4,5-b]pyridine-5,7-diamine]
0.1 to 0.5 | Cc1nc2c(Nc3ccc(C4CCCO4)cc3S(C)(=O)=O)cc(Nc3ccc(C(C)C)c(C#N)n3)nc2[nH]1 (centres unmarked) [I-575, 3-isopropyl-6-((2-methyl-7-((2-(methylsulfonyl)-4-(tetrahydrofuran-2-yl)phenyl)amino)-3H-imidazo[4,5-b]pyridin-5-yl)amino)picolinonitrile]

SMILES | Kd [nM]
Cc1nc2c(Nc3ccc([C@H]4CCCO4)cc3S(C)(=O)=O)cc(NC(=O)C3CC3)nc2[nH]1 [I-473, (R)—N-(2-methyl-7-((2-(methylsulfonyl)-4-(tetrahydrofuran-2-yl)phenyl)amino)-3H-imidazo[4,5-b]pyridin-5-yl)cyclopropanecarboxamide] | < 0.1
COc1c(F)cccc1Nc1cc(NC(=O)C2CC2)nc2[nH]c(C)nc12 [I-104, N-(7-((3-fluoro-2-methoxyphenyl)amino)-2-methyl-3H-imidazo[4,5-b]pyridin-5-yl)cyclopropanecarboxamide] | > 10
CS(=O)(=O)c1cc(C2COCCO2)ccc1Nc1cc(NC(=O)C2CC2)nc2[nH]c(C(F)F)nc12 (stereo in doubt) [I-614, (S)—N-(7-((4-(1,4-dioxan-2-yl)-2-(methylsulfonyl)phenyl)amino)-2-(difluoromethyl)-3H-imidazo[4,5-b]pyridin-5-yl)cyclopropanecarboxamide] | 0.1 to 0.5
CN(c1cc(-c2cncn2C)ccc1Nc1cc(NC(=O)C2CC2)nc2[nH]c(C(F)F)nc12)S(C)(=O)=O [I-147, N-(2-(difluoromethyl)-7-((4-(1-methyl-1H-imidazol-5-yl)-2-(N-methylmethylsulfonamido)phenyl)amino)-3H-imidazo[4,5-b]pyridin-5-yl)cyclopropanecarboxamide] | < 0.1
CS(=O)(=O)c1cc([C@H]2CCCO2)ccc1Nc1cc(NC(=O)[C@H]2CC2(F)F)nc2[nH]c(C(F)F)nc12 [I-307, (R)—N-(2-(difluoromethyl)-7-((2-(methylsulfonyl)-4-((R)-tetrahydrofuran-2-yl)phenyl)amino)-3H-imidazo[4,5-b]pyridin-5-yl)-2,2-difluorocyclopropane-1-carboxamide] | 1 to 10
Cc1ccc(Nc2cc(Nc3ccccc3N(C)S(C)(=O)=O)c3nc(C)[nH]c3n2)nn1 [I-118, N-methyl-N-(2-((2-methyl-5-((6-methylpyridazin-3-yl)amino)-3H-imidazo[4,5-b]pyridin-7-yl)amino)phenyl)methanesulfonamide] | 0.1 to 0.5
COc1c(Nc2cc(NC(=O)C3CC3)nc3[nH]c(C(F)F)nc23)cccc1-n1ncnc1C [I-55, N-(2-(difluoromethyl)-7-((2-methoxy-3-(5-methyl-1H-1,2,4-triazol-1-yl)phenyl)amino)-3H-imidazo[4,5-b]pyridin-5-yl)cyclopropanecarboxamide] | > 10
